Test results as given in patent publication US5491149A, “Dihydroxypropylamine containing retroviral protease inhibitors” (The Du Pont Merck Pharmaceutical Company, priority 1994, dated 1996).
Values after ≈ are worked out from the molar mass of the structure shown.

Key:
[1] = test system: HIV(3B) or HIV(RF) in MT-2 human T-cells; experiment: HIV Low Multiplicity Assay (XTT, MT-2 cells); format: cell-based; conditions: Human immunodeficiency virus 1, MT2, 168 h, 90% protection, multiplicity of infection 0.01, 7 days
Procedure: HIV Low Multiplicity Assby
MT-2, a human T-cell line, was cultured in RPMI medium supplemented with 5% (v/v) heat inactivated fetal calf serum (FCS), L-glutamine and gentamycin (GIBCO). Human immunodeficiency virus strains HIV(3B) and HIV(Rf) were propagated in H-9 cells in RPMI with 5% FCS. XTT, benzene-sulfonic acid, 3,3'-[1-[(phenylamino)carbonyl]-3,4-tetrazolium]bis(4-methoxy-6-nitro)-, sodium salt, was obtained from Starks Associates, Inc.
Test compounds were dissolved in dimethyl-sulfoxide to 5 mg/ml and serially diluted into RPMI medium to ten times the desired final concentration. MT-2 cells (5×10^4 /0.1 ml) were added to each well of a 96 well culture plate and 0.02 ml of the appropriate test compound solution was added to the cells such that each compound concentration was present in two wells. The cells and compounds were allowed to sit for 30 minutes at room temperature. HIV(3B) or HIV(RF) (~5×10^5 plaque forming units/ml) was diluted in medium and added to the cell and compound mixtures to give a multiplicity of infection of 0.01 plaque forming unit/cell. The mixtures were incubated for 7 days at 36° C., during which time the virus replicated and caused the death of unprotected cells. The percentage of cells protected from virus induced cell death was determined by the degree of metabolism of the tetrazolium dye, XTT. In living cells, XTT was metabolized to a colored formazan product which was quantitated spectrophotometrically at 450 nm. The amount of colored formazan was proportional to the number of cells protected from virus by the test compound. The concentration of compound protecting either 50% (IC50) or 90% (IC90) with respect to an uninfected cell culture was determined.

[2] = target: T1, HIV protease (Human immunodeficiency virus type 1 group M subtype B, UniProt P04585); experiment: Cell Free HIV Protease Inhibition Assay (gag polyprotein); format: biochemical; conditions: HIV gag polyprotein substrate, 30° C.
T1 construct: plasmid containing HIV protease under the control of the T7 promotor; made in house; host or cells: E. coli (crude lysate, lac promoter)
Text: Procedure III: Cell Free Protease Inhibition Assay Materials:
HIV gag polyprotein corresponding to all of p17 and 78 amino acids of p24, produced by in vitro translation using rabbit reticulocyte lysate and mRNA prepared in vitro from plasmid encoding full length gag polyprotein linerized with the restriction enzyme Pst 1. (see S. Erickson-Viitanen et al., AIDS Research and Human Retroviruses, 5 (6), 577 (1989) for plasmid construction, and basis for assay).
Source of protease: Either (A) crude E. coli lysate of bacteria harboring a plasmid containing HIV protease under the control of the lac promotor, used at a final concentration of 0.5 mg/ml, or (B) inclusion bodies of E. coli harboring plasmid containing HIV protease under the control of the T7 promotor (Cheng et al., Gene, in press (1990)). Such inclusion bodies were solubilized in 8M urea, 50 mM Tris pH 8.0. Protease activity was recovered by dilution of the inclusion bodies 20-fold in buffer containing 50 mM Sodium Acetate, pH 5.5, 1 mM EDTA, 10% glycerol and 5% ethylene glycol. This protease source was used at a final concentration of 0.00875 mg/ml.
Inhibitory compounds were dissolved in sufficient DMSO to make a 2.5 mM stock concentration. All further dilutions were done in DMSO.
Into sterile test tubes were placed the following:
14 ul HIV protease in Phosphate Buffered Saline (20 mM Sodium Phosphate, 0.15M NaCl, pH 6.5).
5 μl of in vitro translation products.
Reactions were incubated at 30° C., then quenched by the addition of Sample buffer. See U. K. Laemmli, Nature, 1970, 227:680-685.
One fourth of each sample was analyzed on an 8-16% gradient denaturing acrylamide gel (Novex, Inc), according to Laemmli. Following electrophoresis, gels were fixed, impregnated with Enhance (Du Pont NEN, Boston, Mass.) and dried according to manufacturers instructions (NEN). Dried fluorographs were exposed to film and/or quantitated using an Ambis radioanalytic scanner.
Each group of test compounds was compared to the values obtained for pepstatin, a well known inhibitor of acid proteases . Inhibitory concentration for 50% inhibition (IC50) is determined from plots of log concentration inhibitor versus % inhibition of protease activity.
Biological Activity: IC50 is the concentration necessary for reducing the activity of the enzyme by 50%.

| Structure (SMILES) | IC90 [1] [µg/mL] | IC50 [2] [nM] |
| --- | --- | --- |
| CC(C)[C@H](NC(=O)OCc1ccccc1)C(=O)N[C@@H](Cc1ccccc1)[C@H](O)[C@H](O)CN1C[C@H]2CCCC[C@H]2C[C@H]1C(=O)NC(C)(C)C (relative stereo) [Example 3, [3-[2[1R*(R*),2R*,3S*],3a,4ab,8ab]]-(phenylmethyl)[1-[[[4-[3-[[(1,1-dimethylethyl)amino]carbonyl]octahydro-2(1H)-isoquinolinyl-2,3-dihydroxy-1-(phenylmethyl)butyl]amino]carbonyl]-2-methylpropyl]carbamate] | 1.7 (≈ 2.56 µM) | 2110 |
| CC(C)(C)NC(=O)[C@@H]1C[C@@H]2CCCC[C@@H]2CN1C[C@H](O)[C@@H](O)[C@H](Cc1ccccc1)NC(=O)[C@H](CC(N)=O)NC(=O)c1ccc2ccccc2n1 [Example 7, [3S-[2[1R*(R*),2R*,3R*],3a,4ab,8ab]]-N1-[4-[3-[[(1,1-dimethylethyl)amino]carbonyl]octahydro-2(1H)-isoquinolinyl]-2,3-dihydroxy-1-(phenylmethyl)butyl]-2-[(2-quinolinylcarbonyl)amino]butanediamide] | 2.2 (≈ 3.14 µM) | 2840 |
| CC(C)(C)NC(=O)[C@@H]1C[C@@H]2CCCC[C@@H]2CN1C[C@H](O)[C@H](O)[C@H](Cc1ccccc1)NC(=O)[C@H](CC(N)=O)NC(=O)OCc1ccccc1 [Example 5, [3S-[2[1R*(R*),2S*,3R*],3a,4ab,8ab]]-(phenylmethyl)[3-amino-1-[[[4-[3-[[(1,1-dimethylethyl)amino]carbonyl]octahydro-2(1H)-isoquinolinyl]-2,3-dihydroxy-1-(phenylmethyl)butyl]amino]carbonyl]-3-oxopropyl]carbamate] | > 30 | > 18400 |
| CC(C)(C)NC(=O)[C@@H]1C[C@@H]2CCCC[C@@H]2CN1C[C@@H](O)[C@@H](O)[C@H](Cc1ccccc1)NC(=O)[C@H](CC(N)=O)NC(=O)c1ccc2ccccc2n1 [Example 2, [3S-[2[1R*(R*),2R*,3S*],3a,4ab,8b]]-N1-[4-[3-[[(1,1-dimethylethyl)amino]carbonyl]octahydro-2(1H)-isoquinolinyl]-2,3-dihydroxy-1-(phenylmethyl)butyl]-2-[(2-quinolinylcarbonyl)amino]butanediamide] | 0.3 (≈ 0.428 µM) | 542 |
| CC[C@H](C)[C@H](NC(=O)OCc1ccccc1)C(=O)N[C@@H](Cc1ccccc1)[C@H](O)[C@H](O)CN1C[C@H]2CCCC[C@H]2C[C@H]1C(=O)NC(C)(C)C [Example 4, [3S-[2[1R*(R*,R*),2R*,3S*],3a,4ab,8ab]]-(phenylmethyl)[1-[[[4-[3-[[(1,1-dimethylethyl)amino]carbonyl]octahydro-2(1H)-isoquinolinyl]-2,3-dihydroxy-1-(phenylmethyl)butyl]amino]carbonyl]-2-methylbutyl]carbamate] | 1 (≈ 1.47 µM) | 2930 |
| CC(C)(C)NC(=O)[C@@H]1C[C@@H]2CCCC[C@@H]2CN1C[C@@H](O)[C@H](O)[C@H](Cc1ccccc1)NC(=O)[C@H](CC(N)=O)NC(=O)OCc1ccccc1 [Example 8, [3S-[2[1R*(R*),2S*,3S*],3a,4ab,8ab]]-(phenylmethyl)[3-amino-1-[[[4-[3-[[(1,1-dimethylethyl)amino]carbonyl]octahydro-2(1H)-isoquinolinyl-2,3-dihydroxy-1-(phenylmethyl)butyl]amino]carbonyl]-3-oxopropyl]carbamate] | > 30 | > 18400 |
| CC(C)(C)NC(=O)[C@@H]1C[C@@H]2CCCC[C@@H]2CN1C[C@@H](O)[C@@H](O)[C@H](Cc1ccccc1)NC(=O)[C@H](CC(N)=O)NC(=O)OCc1ccccc1 [Example 1, [3S-[2[1R*(R*),2R*,3S*],3a,4ab,8ab]]-(phenylmethyl)[3-amino-1-[[[4-[3-[[(1,1-dimethylethyl)amino]carbonyl]octahydro-2(1H)-isoquinolinyl]-2,3-dihydroxy-1(phenylmethyl)butyl]amino]carbonyl]-3-oxopropyl]carbamate] | 2 (≈ 2.94 µM) | 3020 |
| CC(C)(C)NC(=O)[C@@H]1C[C@@H]2CCCC[C@@H]2CN1C[C@@H](O)[C@H](O)[C@H](Cc1ccccc1)NC(=O)[C@H](CC(N)=O)NC(=O)c1ccc2ccccc2n1 [Example 9, [3S-[2[1R*(R*),2S*,3S*],3a,4ab,8ab]]-N1-[4-[3-[[(1,1-dimethylethyl)amino]carbonyl]octahydro-2(1H)-isoquinolinyl]-2,3-dihydroxy-1-(phenylmethyl)butyl]-2-[(2-quinolinylcarbonyl)amino]butanediamide] | 3 (≈ 4.28 µM) | > 17800 |
| CC(C)(C)NC(=O)[C@@H]1C[C@@H]2CCCC[C@@H]2CN1C[C@H](O)[C@H](O)[C@H](Cc1ccccc1)NC(=O)[C@H](CC(N)=O)NC(=O)c1ccc2ccccc2n1 [Example 6, [3S-[2[1R*(R*),2S*,3R*],3a,4ab,8ab]]-N1-[4-[3-[[(1,1-dimethylethyl)amino]carbonyl]octahydro-2(1H)-isoquinolinyl]-2,3-dihydroxy-1-(phenylmethyl)butyl]-2-[(2-quinolinylcarbonyl)amino]butanediamide] | 10 (≈ 14.3 µM) | > 17800 |
